Our source for the TGI values is PubChem BioAssay (NCI).

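Where inhibition never reached the appropriate level, the endpoint shown equals the highest concentration tested. Otherwise, values were interpolated linearly from a five-concentration, 48-hour dose response in 96-well plates. At the TGI there is no net growth.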 *1 amine or outer side, *2 acyl side, *3 side chain or, on linkers, in order; H or OH if unused. Where a SMILES comes first, the peptide text is derived from it. Bridges are numbered along the chain shown (N, C = ends). [ ]: non-standard residue; d: D form. ξ: configuration not given here. X35 = CC[C@H](C)[C@@H](N[*:1])[C@@H](O)CC(=O)O[C@H](C(=O)[C@H](C)C(=O)[*:2])C(C)C; NMeY = CN[C@@H](Cc1ccc(O)cc1)C(=O)O; dNMeL = CN[C@H](CC(C)C)C(=O)O; ξΔPro = O=C(O)C1C=CCN1 Where only a bound is given, the exact number is not on record here.

Among the test systems are SW-620 colon; SNB-75 CNS; RXF 393 renal; UACC-62 melanoma; MOLT-4 leukemia; OVCAR-5 ovarian; UO-31 renal; SK-MEL-2 melanoma; SNB-19 CNS; COLO 205 colon.
Holding throughout (assay): NCI anticancer screen, dose series, 48 h

In the case of `COc1cc2c(c(OC)c1)C(=O)O[C@H](C)CCCC/C=C/C2`, the TGI in the assay on SW-620 colon was 22.9 µM; in the assay with SNB-75 CNS, above 32.8 µM; with RXF 393 renal, 25.2 µM; in the assay with UACC-62 melanoma, above 58 µM; in the assay on MOLT-4 leukemia it was above 31.9 µM; with OVCAR-5 ovarian, above 32.7 µM. Besides, the TGI in the assay on UO-31 renal was above 30.8 µM; in the assay with SK-MEL-2 melanoma, 31.1 µM; with SNB-19 CNS, above 32.5 µM; in the assay with COLO 205 colon, 31.8 µM.
Turning to `CCOC(=O)Cc1csc(N=Nc2c(O)[nH]c3ccccc23)n1`, the TGI was above 100 µM in the assay with SW-620 colon; 96.6 µM in the assay on SNB-75 CNS; above 100 µM in the assay with RXF 393 renal; above 100 µM in the assay on UACC-62 melanoma; 73.1 µM in the assay with MOLT-4 leukemia; above 100 µM with OVCAR-5 ovarian. Also, the TGI with UO-31 renal, in the assay with SK-MEL-2 melanoma, in the assay on SNB-19 CNS and in the assay on COLO 205 colon was above 100 µM each time.
Turning to `CC(=Nc1cc(Cl)cc(Cl)c1)c1ccncc1`, the TGI with SW-620 colon, with SNB-75 CNS, in the assay with RXF 393 renal, in the assay on UACC-62 melanoma, with MOLT-4 leukemia and in the assay with OVCAR-5 ovarian was above 100 µM throughout. Moreover, the TGI with UO-31 renal, in the assay with SK-MEL-2 melanoma, in the assay with SNB-19 CNS and with COLO 205 colon was above 100 µM in each case.
On to `CC[C@H](C)[C@H]1NC(=O)[C@@H](NC(=O)[C@@H](CC(C)C)N(C)C(=O)C2C=CCN2)[C@@H](C)OC(=O)[C@H](Cc2ccc(OC)cc2)N(C)C(=O)[C@@H]2CCCN2C(=O)[C@H](CC(C)C)NC(=O)[C@@H](C)C(=O)[C@H](C(C)C)OC(=O)C[C@@H]1O` (stereo partly drawn) (H-[ξΔPro][dNMeL]T[X35]LP[NMeY](Me); ester 3-C), for which the TGI in the assay on SW-620 colon was above 50 µM; with SNB-75 CNS, 0.0107 µM; with RXF 393 renal it was 0.0285 µM; with UACC-62 melanoma, 0.00602 µM; in the assay with MOLT-4 leukemia it was above 50 µM; with OVCAR-5 ovarian, above 50 µM. The TGI amounted to 0.303 µM in the assay with UO-31 renal, 0.0115 µM with SK-MEL-2 melanoma, 0.00706 µM in the assay with SNB-19 CNS and 9.32 µM in the assay on COLO 205 colon.
`CC1CN=C(c2ccc(-c3nc(-c4ccc(C5=NCC(C)N5)cc4)nc(N(C)C)n3)cc2)N1` (stereo not drawn): the TGI with SW-620 colon is 5.56 µM; in the assay with SNB-75 CNS, 4.29 µM; in the assay with RXF 393 renal, 12.8 µM; with UACC-62 melanoma, 3.41 µM; in the assay with MOLT-4 leukemia, 3.79 µM; with OVCAR-5 ovarian it was 10.8 µM. For the same compound, the TGI in the assay with UO-31 renal was 19.9 µM; in the assay on SK-MEL-2 melanoma it was 4.05 µM; with SNB-19 CNS, 6.73 µM; in the assay with COLO 205 colon, 2.38 µM.
Consider `O=C1C(Cl)=C(c2ccc([N+](=O)[O-])cc2)C(=O)c2c(O)cccc21`, for which the TGI with SW-620 colon was 3.66 µM; in the assay with SNB-75 CNS, 7.13 µM; in the assay with RXF 393 renal it was 3.49 µM; in the assay with UACC-62 melanoma it was 1.98 µM; in the assay on MOLT-4 leukemia, above 100 µM; in the assay with OVCAR-5 ovarian, 5.98 µM. Moreover, the TGI was 3.84 µM with UO-31 renal, 2.22 µM in the assay on SK-MEL-2 melanoma, 5.68 µM in the assay on SNB-19 CNS and 3.66 µM with COLO 205 colon.
Regarding `Cc1ccc(NC2=N/C(=C/c3ccco3)C(Cl)=N2)cc1`, the TGI in the assay on SW-620 colon, with SNB-75 CNS, with RXF 393 renal, in the assay on UACC-62 melanoma, in the assay with MOLT-4 leukemia and in the assay on OVCAR-5 ovarian was above 100 µM throughout. In addition, the TGI in the assay on UO-31 renal, in the assay on SK-MEL-2 melanoma, in the assay with SNB-19 CNS and with COLO 205 colon was above 100 µM throughout.
Regarding `Cn1ccc2c(c1=O)C(=O)OC2(C)C`, the TGI with SW-620 colon, in the assay with SNB-75 CNS, with RXF 393 renal, in the assay on UACC-62 melanoma, in the assay with MOLT-4 leukemia and in the assay on OVCAR-5 ovarian was above 100 µM in each case. The TGI with UO-31 renal, with SNB-19 CNS and in the assay on COLO 205 colon was above 100 µM in each case.
`COc1cc(CNC(=S)CCCCCCCCCCC(C)C)ccc1O`: the TGI in the assay on SW-620 colon, in the assay with SNB-75 CNS, with RXF 393 renal, in the assay with UACC-62 melanoma, in the assay on MOLT-4 leukemia and in the assay with OVCAR-5 ovarian was above 100 µM throughout. Also, the TGI is 95.7 µM in the assay with UO-31 renal, above 100 µM with SNB-19 CNS and above 100 µM in the assay on COLO 205 colon.
For the compound `N#Cc1c(N2CCN(c3ccc([N+](=O)[O-])cc3)CC2)[n+](=O)c2ccc(-c3ccc([N+](=O)[O-])cc3)cc2n1[O-]`, the TGI with SW-620 colon, with SNB-75 CNS, in the assay with RXF 393 renal, with UACC-62 melanoma, with MOLT-4 leukemia and with OVCAR-5 ovarian was above 100 µM throughout. Moreover, the TGI in the assay with UO-31 renal, with SK-MEL-2 melanoma, in the assay with SNB-19 CNS and in the assay with COLO 205 colon was above 100 µM throughout.
Regarding `O=c1[nH]c2cc([N+](=O)[O-])c(Nc3c4ccccc4nc4ccccc34)c([N+](=O)[O-])c2[nH]1`, the TGI in the assay on SW-620 colon was determined as 14.7 µM; with SNB-75 CNS, 13.5 µM; with RXF 393 renal it was 10.1 µM; with UACC-62 melanoma, 4.53 µM; in the assay with MOLT-4 leukemia, 5.02 µM; with OVCAR-5 ovarian it was 7.08 µM. The TGI in the assay on UO-31 renal turned out to be 5.98 µM; in the assay with SK-MEL-2 melanoma it was 8.6 µM; in the assay on SNB-19 CNS, 26.7 µM; with COLO 205 colon, 6.97 µM.
For `CC(C#N)N(CCc1ccccc1)C(=O)c1ccccc1` (stereo not drawn), the TGI in the assay with SW-620 colon, in the assay with SNB-75 CNS, in the assay on RXF 393 renal, in the assay on UACC-62 melanoma, with MOLT-4 leukemia and in the assay on OVCAR-5 ovarian was above 100 µM in each case. Moreover, the TGI in the assay with UO-31 renal, in the assay with SK-MEL-2 melanoma, with SNB-19 CNS and in the assay on COLO 205 colon was above 100 µM throughout.
On to `COc1cc(S(=O)(=O)Nc2ccc(-c3csc(/N=C\c4ccccc4)n3)cc2)ccc1Cl`, for which the TGI in the assay on SW-620 colon is above 100 µM; in the assay with SNB-75 CNS, above 100 µM; with RXF 393 renal it was above 100 µM; with UACC-62 melanoma, above 100 µM; with MOLT-4 leukemia, 52.1 µM; with OVCAR-5 ovarian, above 100 µM. In addition, the TGI in the assay on UO-31 renal is above 100 µM; with SK-MEL-2 melanoma, 60.6 µM; with SNB-19 CNS, above 100 µM; in the assay on COLO 205 colon, above 100 µM.
